Results on 15 compounds are retold here after PubChem BioAssay (NCI).

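Test compounds were applied to cells in 96-well plates for 48 hours at 5 doses. TGI marks complete inhibition of growth.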

For the first assay, the system named is PC-3 prostate. The assay is described as follows: inhibition of tumour cell growth, NCI panel, 48 h.
`[N-]=[N+]=Nc1ccccc1C(=O)N1C(=O)c2ccccc2C(=O)N(C(=O)c2ccccc2N=[N+]=[N-])c2ccccc21` returned a TGI of over 100 µM.

For the compound `CC(C)Cn1cnc2c(NCC(C)O)nc3ccccc3c21` (stereo unspecified), the TGI was over 100 µM.

In turn, `COC1(OC)c2no[n+]([O-])c2CCC1O` (stereo unspecified) came in with a TGI of over 100 µM.

`OC1(c2cccs2)c2cccc(Cl)c2C(O)(c2cccs2)c2c(Cl)cccc21` (stereo unspecified) registered a TGI of over 100 µM.

Compound `C=CCOc1cccc(C2(O)c3ccccc3C3=NCCCN32)c1` (stereo unspecified) registered a TGI of over 44.4 µM.

`C=CCN1C(=O)/C(=C/c2ccc(OC)cc2)N=C1SC/C=C/C` showed a TGI of over 100 µM.

In turn, `O=C(ON=C1c2ccccc2C(Br)C(Br)c2ccccc21)c1cc([N+](=O)[O-])cc([N+](=O)[O-])c1` (stereo unspecified) yielded a TGI of over 73.5 µM.

`CC1=NN(C(=O)c2ccccc2O)C(=O)/C1=C/c1ccco1` had a TGI of 46 µM.

On to `Cn1c2ccccc2c2c(-c3ccccc3)cc3c(c21)C(=O)C=CC3=O`, for which the TGI is over 6.39 µM.

`COc1ccc(Nc2nnc(-c3nsc4ccccc34)s2)cc1` showed a TGI of over 100 µM.

In turn, `NC(N)=N/N=C/c1c(-c2ccc(Cl)cc2)nc2sccn12` gave a TGI of 3.33 µM.

In the next assay the test system is SK-OV-3 ovarian. The assay can be described thus: inhibition of tumour cell growth, NCI panel, 48 h.
`CCOc1cc(NC(C)=O)ccc1C(=O)NN1C(=O)C(Cl)C1c1ccccc1` (stereo unspecified) showed a TGI of 31.7 µM.

`Cc1ccc(S(=O)(=O)n2cc(-c3cc(C(F)(F)F)ccn3)c3cc(Br)ccc32)cc1` gave a TGI of 35.1 µM.

For `CN(CCCCCl)P(=O)(OCc1ccc([N+](=O)[O-])o1)OC[C@H]1O[C@@H](n2cc(F)c(=O)[nH]c2=O)C[C@@H]1O` (stereo partly specified), the TGI came to 34.1 µM.

`CCOC(=O)P(=O)(O)c1ccc(N(C)Cc2ccccc2)cc1` returned a TGI of over 100 µM.

`[N-]=[N+]=Nc1ccccc1C(=O)N1C(=O)c2ccccc2C(=O)N(C(=O)c2ccccc2N=[N+]=[N-])c2ccccc21`: the TGI is over 100 µM.

The compound `CC(C)Cn1cnc2c(NCC(C)O)nc3ccccc3c21` (stereo unspecified) came in with a TGI of over 100 µM.

Turning to `COC1(OC)c2no[n+]([O-])c2CCC1O` (stereo unspecified), the TGI is over 100 µM.

Take `OC1(c2cccs2)c2cccc(Cl)c2C(O)(c2cccs2)c2c(Cl)cccc21` (stereo unspecified): the TGI is over 100 µM.

The compound `C=CCOc1cccc(C2(O)c3ccccc3C3=NCCCN32)c1` (stereo unspecified) registered a TGI of over 100 µM.

Compound `C=CCN1C(=O)/C(=C/c2ccc(OC)cc2)N=C1SC/C=C/C` yielded a TGI of over 100 µM.

As for `O=C(ON=C1c2ccccc2C(Br)C(Br)c2ccccc21)c1cc([N+](=O)[O-])cc([N+](=O)[O-])c1` (stereo unspecified), the TGI turned out to be 66.8 µM.

In turn, `CC1=NN(C(=O)c2ccccc2O)C(=O)/C1=C/c1ccco1` came in with a TGI of over 82 µM.

`Cn1c2ccccc2c2c(-c3ccccc3)cc3c(c21)C(=O)C=CC3=O` returned a TGI of over 10 µM.

With `COc1ccc(Nc2nnc(-c3nsc4ccccc34)s2)cc1`, the TGI came out at 19 µM.

The compound `NC(N)=N/N=C/c1c(-c2ccc(Cl)cc2)nc2sccn12` showed a TGI of 10.8 µM.

Another assay deals with T-47D breast. The assay is described as follows: inhibition of tumour cell growth, NCI panel, 48 h.
On to `CCOc1cc(NC(C)=O)ccc1C(=O)NN1C(=O)C(Cl)C1c1ccccc1` (stereo unspecified), for which the TGI was found to be 35.4 µM.

Take `Cc1ccc(S(=O)(=O)n2cc(-c3cc(C(F)(F)F)ccn3)c3cc(Br)ccc32)cc1`: the TGI is 18.9 µM.

`CN(CCCCCl)P(=O)(OCc1ccc([N+](=O)[O-])o1)OC[C@H]1O[C@@H](n2cc(F)c(=O)[nH]c2=O)C[C@@H]1O` (stereo partly specified) displayed a TGI of 5.41 µM.

In turn, `CCOC(=O)P(=O)(O)c1ccc(N(C)Cc2ccccc2)cc1` showed a TGI of over 100 µM.

Compound `[N-]=[N+]=Nc1ccccc1C(=O)N1C(=O)c2ccccc2C(=O)N(C(=O)c2ccccc2N=[N+]=[N-])c2ccccc21` returned a TGI of over 100 µM.

`CC(C)Cn1cnc2c(NCC(C)O)nc3ccccc3c21` (stereo unspecified) gave a TGI of over 100 µM.

`COC1(OC)c2no[n+]([O-])c2CCC1O` (stereo unspecified) yielded a TGI of over 100 µM.

With `OC1(c2cccs2)c2cccc(Cl)c2C(O)(c2cccs2)c2c(Cl)cccc21` (stereo unspecified), the TGI was over 100 µM.

Consider `C=CCOc1cccc(C2(O)c3ccccc3C3=NCCCN32)c1` (stereo unspecified), for which the TGI is 45.5 µM.

Compound `C=CCN1C(=O)/C(=C/c2ccc(OC)cc2)N=C1SC/C=C/C` had a TGI of 94.2 µM.

Regarding `O=C(ON=C1c2ccccc2C(Br)C(Br)c2ccccc21)c1cc([N+](=O)[O-])cc([N+](=O)[O-])c1` (stereo unspecified), the TGI was 76.7 µM.

Compound `CC1=NN(C(=O)c2ccccc2O)C(=O)/C1=C/c1ccco1` gave a TGI of over 100 µM.

For the compound `Cn1c2ccccc2c2c(-c3ccccc3)cc3c(c21)C(=O)C=CC3=O`, the TGI came out at 4.9 µM.

In turn, `COc1ccc(Nc2nnc(-c3nsc4ccccc34)s2)cc1` displayed a TGI of over 100 µM.

In turn, `NC(N)=N/N=C/c1c(-c2ccc(Cl)cc2)nc2sccn12` displayed a TGI of 3.22 µM.

For another assay, the system named is OVCAR-4 ovarian. The assay can be described thus: inhibition of tumour cell growth, NCI panel, 48 h.
As to `CCOc1cc(NC(C)=O)ccc1C(=O)NN1C(=O)C(Cl)C1c1ccccc1` (stereo unspecified), the TGI turned out to be 32.7 µM.

With `Cc1ccc(S(=O)(=O)n2cc(-c3cc(C(F)(F)F)ccn3)c3cc(Br)ccc32)cc1`, the TGI came to 29.7 µM.

`CN(CCCCCl)P(=O)(OCc1ccc([N+](=O)[O-])o1)OC[C@H]1O[C@@H](n2cc(F)c(=O)[nH]c2=O)C[C@@H]1O` (stereo partly specified) yielded a TGI of 33.5 µM.

Take `CCOC(=O)P(=O)(O)c1ccc(N(C)Cc2ccccc2)cc1`: the TGI is over 100 µM.

The compound `[N-]=[N+]=Nc1ccccc1C(=O)N1C(=O)c2ccccc2C(=O)N(C(=O)c2ccccc2N=[N+]=[N-])c2ccccc21` gave a TGI of over 100 µM.

With `CC(C)Cn1cnc2c(NCC(C)O)nc3ccccc3c21` (stereo unspecified), the TGI was over 100 µM.

`COC1(OC)c2no[n+]([O-])c2CCC1O` (stereo unspecified) had a TGI of over 100 µM.

`OC1(c2cccs2)c2cccc(Cl)c2C(O)(c2cccs2)c2c(Cl)cccc21` (stereo unspecified) yielded a TGI of over 100 µM.

`C=CCOc1cccc(C2(O)c3ccccc3C3=NCCCN32)c1` (stereo unspecified) showed a TGI of over 80.1 µM.

For `C=CCN1C(=O)/C(=C/c2ccc(OC)cc2)N=C1SC/C=C/C`, the TGI is over 100 µM.

For the compound `O=C(ON=C1c2ccccc2C(Br)C(Br)c2ccccc21)c1cc([N+](=O)[O-])cc([N+](=O)[O-])c1` (stereo unspecified), the TGI was 48.2 µM.

Consider `CC1=NN(C(=O)c2ccccc2O)C(=O)/C1=C/c1ccco1`, for which the TGI is over 84.8 µM.

In turn, `Cn1c2ccccc2c2c(-c3ccccc3)cc3c(c21)C(=O)C=CC3=O` had a TGI of 5.75 µM.

Regarding `COc1ccc(Nc2nnc(-c3nsc4ccccc34)s2)cc1`, the TGI turned out to be 6.73 µM.

In turn, `NC(N)=N/N=C/c1c(-c2ccc(Cl)cc2)nc2sccn12` displayed a TGI of 4.24 µM.

In a further assay the test system is ACHN renal. The assay is described as follows: inhibition of tumour cell growth, NCI panel, 48 h.
As to `CCOc1cc(NC(C)=O)ccc1C(=O)NN1C(=O)C(Cl)C1c1ccccc1` (stereo unspecified), the TGI turned out to be 29.7 µM.

In the case of `Cc1ccc(S(=O)(=O)n2cc(-c3cc(C(F)(F)F)ccn3)c3cc(Br)ccc32)cc1`, the TGI is 24.3 µM.

On to `CN(CCCCCl)P(=O)(OCc1ccc([N+](=O)[O-])o1)OC[C@H]1O[C@@H](n2cc(F)c(=O)[nH]c2=O)C[C@@H]1O` (stereo partly specified), for which the TGI is over 100 µM.

With `CCOC(=O)P(=O)(O)c1ccc(N(C)Cc2ccccc2)cc1`, the TGI is over 100 µM.

On to `[N-]=[N+]=Nc1ccccc1C(=O)N1C(=O)c2ccccc2C(=O)N(C(=O)c2ccccc2N=[N+]=[N-])c2ccccc21`, for which the TGI is over 100 µM.

With `CC(C)Cn1cnc2c(NCC(C)O)nc3ccccc3c21` (stereo unspecified), the TGI was over 100 µM.

`COC1(OC)c2no[n+]([O-])c2CCC1O` (stereo unspecified) registered a TGI of over 100 µM.

`OC1(c2cccs2)c2cccc(Cl)c2C(O)(c2cccs2)c2c(Cl)cccc21` (stereo unspecified) returned a TGI of over 100 µM.

The compound `C=CCOc1cccc(C2(O)c3ccccc3C3=NCCCN32)c1` (stereo unspecified) yielded a TGI of 26.5 µM.

Compound `C=CCN1C(=O)/C(=C/c2ccc(OC)cc2)N=C1SC/C=C/C` came in with a TGI of over 100 µM.

The compound `O=C(ON=C1c2ccccc2C(Br)C(Br)c2ccccc21)c1cc([N+](=O)[O-])cc([N+](=O)[O-])c1` (stereo unspecified) yielded a TGI of 45 µM.

`CC1=NN(C(=O)c2ccccc2O)C(=O)/C1=C/c1ccco1`: the TGI was over 100 µM.

As for `Cn1c2ccccc2c2c(-c3ccccc3)cc3c(c21)C(=O)C=CC3=O`, the TGI turned out to be 3.04 µM.

`COc1ccc(Nc2nnc(-c3nsc4ccccc34)s2)cc1`: the TGI is over 100 µM.

In the case of `NC(N)=N/N=C/c1c(-c2ccc(Cl)cc2)nc2sccn12`, the TGI turned out to be 2.82 µM.
